Experimental data taken from ChEMBL document CHEMBL1141971, “Structure-guided design of pyrazolo[1,5-a]pyrimidines as inhibitors of human cyclin-dependent kinase 2” (Bioorg Med Chem Lett, 2005).

How the values were obtained:
[1] = molecular target: Glycogen synthase kinase-3 beta (Homo sapiens, UniProt P49841); test: Inhibitory concentration for Glycogen synthase kinase-3 beta was determined in the presence of 10 um ATP (Km 10 uM)
HCT-116 = test: Inhibitor concentration to reduce HCT 116 cell line (tumor) growth by 50% over 72 h; format: functional; conditions: Homo sapiens, HCT-116, 72 h
[2] = molecular target: Cyclin-dependent kinase 2 (Homo sapiens, UniProt P24941); test: Inhibitory concentration for Cyclin-dependent kinase 2 was determined in the presence of 100 um ATP (Km 50 uM)

Chain of Glycogen synthase kinase-3 beta (P49841 whole entry): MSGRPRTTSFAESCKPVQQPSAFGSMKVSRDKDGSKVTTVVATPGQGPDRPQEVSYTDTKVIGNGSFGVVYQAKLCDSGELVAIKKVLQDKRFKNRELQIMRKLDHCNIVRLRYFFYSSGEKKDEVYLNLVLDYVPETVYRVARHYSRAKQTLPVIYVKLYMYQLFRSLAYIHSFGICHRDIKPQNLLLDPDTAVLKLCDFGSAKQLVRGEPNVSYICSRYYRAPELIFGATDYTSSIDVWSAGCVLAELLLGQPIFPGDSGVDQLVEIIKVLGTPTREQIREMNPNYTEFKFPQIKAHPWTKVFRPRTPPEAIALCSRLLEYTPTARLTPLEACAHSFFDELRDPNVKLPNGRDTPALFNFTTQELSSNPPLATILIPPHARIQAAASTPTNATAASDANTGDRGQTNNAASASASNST

Compound | IC50 [1] [µM] | GI50 (HCT-116) [µM] | IC50 [2] [µM]
CN(C)S(=O)(=O)c1ccc(Nc2cc(N[C@H]3CC[C@H](N)CC3)nc3c(C4CCCC4)cnn23)cc1 | 22 | – | –
CC(C)COc1cc(Nc2ccc(S(C)(=O)=O)cc2)n2ncc(C(C)C)c2n1 | 12 | 7.8 | –
CN(C)S(=O)(=O)c1ccc(Nc2cc(N[C@H]3CC[C@H](N)CC3)nc3c(Br)cnn23)cc1Cl | 8.7 | 0.34 | –
CN(C)S(=O)(=O)c1ccc(Nc2cc(N[C@H]3CC[C@H](N)CC3)nc3c(Br)cnn23)cc1 | 3.4 | 0.91 | 0.01
CCN(CC)[C@H]1CC[C@H](Nc2cc(Nc3ccc(S(=O)(=O)N(C)C)cc3)n3ncc(C(C)C)c3n2)CC1 | > 50 | 16 | –
CC(C)c1cnn2c(Nc3ccc(S(=O)(=O)N(C)C)cc3)cc(O[C@H]3CC[C@H](N)CC3)nc12 | 28 | 0.71 | –
N[C@H]1CC[C@H](Nc2cc(Nc3ccc(S(=O)(=O)c4cccs4)cc3)n3ncc(Cl)c3n2)CC1 | – | 0.12 | 0.011
CCN[C@H]1CC[C@H](Nc2cc(Nc3ccc(S(=O)(=O)N(C)C)cc3)n3ncc(C(C)C)c3n2)CC1 | > 50 | 1.2 | 0.061
CC(C)c1cnn2c(Nc3ccc(S(=O)(=O)N(C)C)cc3)cc(NC3CCCC(N)C3)nc12 (stereo not drawn) | > 50 | 3.4 | 2.1
CN(C)S(=O)(=O)c1ccc(Nc2cc(N[C@H]3CC[C@H](N)CC3)nc3c(C#N)cnn23)cc1 | 0.46 | 11 | –
CC(C)COc1cc(Nc2ccc(S(=O)(=O)N(C)C)cc2)n2ncc(C(C)C)c2n1 | 50 | 7.6 | 1.2
CC(C)c1cnn2c(Nc3ccc(S(=O)(=O)N(C)C)cc3)cc(N[C@H]3CC[C@H](N)CC3)nc12 | 40 | 0.58 | –
N[C@H]1CC[C@H](Nc2cc(Nc3ccc(S(=O)(=O)c4ccccc4)cc3)n3ncc(Br)c3n2)CC1 | 5.3 | 0.08 | 0.016
CN(C)S(=O)(=O)c1ccc(Nc2cc(N[C@H]3CC[C@H](N)CC3)nc3c(Cl)cnn23)cc1 | 5.1 | 2.7 | 0.008
